Test results reported in patent US20240180882A1, “COMPOUNDS FOR PROTECTION OF NOISE-INDUCED HEARING-LOSS” (The Regents of the University of California, priority 2021, published 2024).
Where two headings read alike, the source gives them in different places.

Experiments:
[1] = system: AMPK; test: AMPK activation in inner and outer hair cells of treated mice; type: in vivo, mouse
Excerpt: There has been increasing interest in AMPK activation in human disease. […] The activation pathways and downstream targets of AMPK differ depending on its subcellular localization (FIG. 8C). In response to energy stress, LKB1 activates cytoplasmic and lysosomal AMPK in an axin-dependent manner as exemplified by phosphorylation of the AMPK target ACC1, whereas it activates mitochondrial AMPK in an axin-independent manner as exemplified by phosphorylation of the AMPK target ACC2. By contrast, activation of nuclear AMPK in response to elevated intracellular Ca^2+ levels are mediated by CaMKK2. For the observed noise-induced activation of nuclear AMPK in IHCs, in the absence of which (γ2 deficiency) mice suffer greater synaptic ribbon morphometric changes and NIHL (FIGS. 3A-3D & 4A-4E), AMPK may be activated by CaMKK2, especially given that physiological sound relay to the auditory nerve in IHCs involves transient Ca2+ elevation.

[2] = Drug distribution of Compound 1 in mouse plasma, brain and perilymph after oral dosing; type: in vivo; details: 2 h after a 300 mg/kg p.o. dose
Experimental: Complete ADME and PK assessment of Compound 1 and Compound 2 at several doses by oral and intratympanic (IT) dosing in wild-type mice and in transgenic efflux-pump knock-out mice to benchmark compound exposure. […] Drug distribution of Compound 1 in a mouse was determined after dosing at 300 mg/kg.

[3] = preclinical data; cited from earlier work
[4] = Concentration in perilymph and plasma following intratympanic dosing in two mouse strains (LC-MS/MS); type: in vivo, C57BL/6J and FVB mice; details: 5 μL of 5 mg/mL in 5% DMSO-95% Poloxamer 407 solution, all plasma data points except one
Experimental: Compound 1 was dissolved DMSO and added to a cold solution of 20% Poloxamer 407 in PBS. The mixture was vortexed to give a solution of final solution of 5 mg/mL Compound 1 in 5% DMSO-95% Poloxamer 407 solution.
In fully anesthetized mice, the mouse bulla was reached through the digastric and sternocleidomastoid muscles and a 27-gauge needle was used to drill an opening adjacent to the round window niche. 5 μL of Compound 1 in the cold 5%/95% DMSO/Poloxamer 407 hydrogel vehicle was introduced by intratympanic injection in both C57BL/6J and FVB mice. Upon reaching the desired time point, mice were euthanized under deep anesthesia. Blood from the heart was collected to determine drug plasma levels. The mouse bulla was re-exposed to verify the injection site and all possible drug remaining were removed from inner ear before collecting the perilymph from the apical side of the cochlea.
Drug levels were measured using LC-MS/MS (Q-trap) with 500 nM indomethacin as the internal standard. Perilymph samples were diluted 10× in plasma. An aliquot of 1 μL sample was protein precipitated with 50 μL IS, the mixture was vortex-mixed well and centrifuged at 3600 rpm for 10 min, Room Temp. 10 μL supernatant was injected for LC-MS/MS analysis. […]

[5] = Test article handling / stability information; type: physicochemical; details: room temp
[6] = analysis of known AMPK activators; cited from earlier work
[7] = PAMPA permeability; type: in vitro ADME
[8] = system: six-week-old B6 mice; test: Noise-induced hearing loss in mice after moderate noise exposure (ABR thresholds, IHC synaptic ribbons), orally administered compound; type: in vivo, mouse
Excerpt: FIGS. 9A-9C depict that Compound 1 administration is protective against mid- to high-frequency hearing loss and synaptic ribbon loss. (A) Threshold elevation two-weeks after moderate noise exposure is reduced in six-week-old B6 mice treated with orally administered Compound 1 either prior or after noise exposure. […] (C) Quantification of paired synaptic ribbons in mice two weeks after exposure to moderate noise given vehicle (top row) and Compound 1 (bottom row). (n=4; scale bar=[…]).
Inducing NIHL in mice. To induce NIHL, mice are exposed to octave band noise (OBN) with a center frequency of 10 kHz for 2 hours using a method adapted from Kujawa, Sharon G., and M. Charles Liberman. “Adding insult to injury: cochlear nerve degeneration after “temporary” noise-induced hearing loss.” Journal of Neuroscience 29.45 (2009): 14077-14085., which is incorporated herein by reference in its entirety.
There has been increasing interest in AMPK activation in human disease. […] The activation pathways and downstream targets of AMPK differ depending on its subcellular localization (FIG. 8C). In response to energy stress, LKB1 activates cytoplasmic and lysosomal AMPK in an axin-dependent manner as exemplified by phosphorylation of the AMPK target ACC1, whereas it activates mitochondrial AMPK in an axin-independent manner as exemplified by phosphorylation of the AMPK target ACC2. […]

concentration at 2 h ([2]; brain, read-out: Brain level of Compound 1): 45 ± 5 µM
concentration at 2 h ([2]; perilymph, read-out: Perilymph level of Compound 1): 0.87 ± 0.04 µM
concentration at 2 h ([2]; plasma, read-out: Plasma level of Compound 1): 443 ± 64 µM
Plasma concentration following intratympanic dosing [4]: below the level of detection
Stability of test article [5]: Compound 1 stable at room temp
Papp [7]: 24 ×10⁻⁶ cm/s
SMILES: O[C@@H]1CO[C@H]2[C@@H]1OC[C@H]2Oc1nc2nc(-c3ccc(-c4ccccc4)cc3)c(Cl)cc2[nH]1 [Compound 1, (3R,3aR,6R,6aR)-6-((5-([1,1′-biphenyl]-4-yl)-6-chloro-3H-imidazo[4,5-b]pyridin-2-yl)oxy)hexahydrofuro[3,2-b]furan-3-ol]
AMPK activation in hair cells [1]: nuclear and cytoplasmic activation of AMPK in both inner and outer hair cells
Effect on glucose homeostasis [3]: improve glucose homeostasis
Passive permeability (in words) [6]: high passive permeability
ABR threshold elevation two weeks after moderate noise exposure ([8]; orally administered either prior or after noise exposure, six-week-old B6 mice): reduced
IHC (32 kHz region) synaptic ribbon counts after moderate noise exposure ([8]; two weeks after exposure to moderate noise, vs vehicle, n=4): preservation
